Reference: patent publication US12390451B2, “Small molecule inhibitor of the JAK family of kinases” (Janssen Pharmaceutica NV, priority 2021, dated 2025)
Read-outs that look alike come from different tables or passages of the source.

How the values were obtained:
JAK2/JAK2 = biological target: T1, JAK2/JAK2 (Homo sapiens, UniProt O60674); assay: TPO-induced pSTAT-3 in human whole blood; type: cell-based; settings: mean
T1 construct: endogenous in cells; host or cells: human whole blood
Procedure: (§1) Compound of Formula I presents low levels of systemic exposure after oral administration. To understand the relationship between systemic exposure and target engagement in human studies, the inhibition of cytokine-induced pSTAT-3 in human whole blood was measured with such compound. In human whole blood, compound of Formula I in a concentration-dependent manner inhibited the JAK1, JAK2, JAK3, and Tyk2 homo- and heterodimers downstream of IFNα (JAK1/Tyk2), thrombopoietin (TPO) (JAK2/JAK2), and IL-21 (JAK1/JAK3) signaling.

JAK1/JAK3 = biological target: T2, JAK1/JAK3 (Homo sapiens, UniProt P23458+P52333); assay: IL-21-induced pSTAT-3 in human whole blood; type: cell-based; settings: mean
T2 construct: endogenous in cells; host or cells: human whole blood
Procedure: as §1

JAK1/3 = biological target: T3, JAK1/3 (Mus musculus, UniProt P52332+Q62137); assay: IL-21-induced pSTAT-3 in murine whole blood; type: cell-based
T3 construct: endogenous in cells; host or cells: murine whole blood
Procedure: Mouse whole blood IC50 values were also generated to build an understanding of the relationship between systemic exposures and target engagement in murine models. In murine whole blood, the in vitro activity of compound of Formula I in the inhibition of IFNα-(JAK1/Tyk2), IL-21-(JAK1/3), and IL-12-(JAK2/Tyk2) induced pSTAT responses in murine whole blood was measured. […] No reliable IC50 could be reported for inhibition of IL-12 induced pSTAT-4 in murine whole blood.

[1] = Serum and colon concentrations in explant studies SS-1 and SS-2; type: in vivo, C57BL/6 mice; settings: for concentration at 4 h: C57BL/6, mouse, po
Procedure: C57BL/6 mice (6 to 8 weeks old) were randomized by weight and assigned to various treatment groups for each study. Mice were dosed orally with indicated doses of compound of Formula I. At the termination of the study, blood was collected via cardiocentesis, serum and washed proximal colon was prepared for PK analysis.
The high colonic and low systemic exposure observed for compound of Formula I implicate the role for colonic drug levels as the key driver of the observed pharmacology.
Data are presented as mean±SEM; N=5/group. BLOQ, below limit of quantification.

[2] = Tissue distribution in rats after oral administration; type: in vivo, male Sprague-Dawley rats; settings: PO 25 mg/kg; for concentration at 0.5 h / concentration at 1 h / concentration at 2 h / concentration at 3 h / concentration at 5 h / concentration at 7 h / concentration at 24 h: male, Sprague-Dawley, rat
Procedure: Preliminary tissue distribution studies were conducted in male Sprague-Dawley rats (N=3/time point) at 0.5, 1, 2, 3, 5, 7, and 24 hours following oral administration of compound of Formula I at a dose of 25 mg/kg. The following tissues were harvested for compound concentration analysis: liver, kidney, brain, muscle, epididymis fat, duodenum, jejunum, ileum, colon (both lumen content and tissue), and plasma. The results of this study indicated low systemic exposure and high local concentrations (intestinal tract).

[3] = 1 h, BLOQ 0.5 ng/mL of tissue homogenate
[4] = 2 h, BLOQ 0.5 ng/mL of tissue homogenate
[5] = 3 h, BLOQ 0.5 ng/mL of tissue homogenate
[6] = 5 h, BLOQ 0.5 ng/mL of tissue homogenate
[7] = 24 h, BLOQ 0.5 ng/mL of tissue homogenate

T3 sequence (P52332 whole entry): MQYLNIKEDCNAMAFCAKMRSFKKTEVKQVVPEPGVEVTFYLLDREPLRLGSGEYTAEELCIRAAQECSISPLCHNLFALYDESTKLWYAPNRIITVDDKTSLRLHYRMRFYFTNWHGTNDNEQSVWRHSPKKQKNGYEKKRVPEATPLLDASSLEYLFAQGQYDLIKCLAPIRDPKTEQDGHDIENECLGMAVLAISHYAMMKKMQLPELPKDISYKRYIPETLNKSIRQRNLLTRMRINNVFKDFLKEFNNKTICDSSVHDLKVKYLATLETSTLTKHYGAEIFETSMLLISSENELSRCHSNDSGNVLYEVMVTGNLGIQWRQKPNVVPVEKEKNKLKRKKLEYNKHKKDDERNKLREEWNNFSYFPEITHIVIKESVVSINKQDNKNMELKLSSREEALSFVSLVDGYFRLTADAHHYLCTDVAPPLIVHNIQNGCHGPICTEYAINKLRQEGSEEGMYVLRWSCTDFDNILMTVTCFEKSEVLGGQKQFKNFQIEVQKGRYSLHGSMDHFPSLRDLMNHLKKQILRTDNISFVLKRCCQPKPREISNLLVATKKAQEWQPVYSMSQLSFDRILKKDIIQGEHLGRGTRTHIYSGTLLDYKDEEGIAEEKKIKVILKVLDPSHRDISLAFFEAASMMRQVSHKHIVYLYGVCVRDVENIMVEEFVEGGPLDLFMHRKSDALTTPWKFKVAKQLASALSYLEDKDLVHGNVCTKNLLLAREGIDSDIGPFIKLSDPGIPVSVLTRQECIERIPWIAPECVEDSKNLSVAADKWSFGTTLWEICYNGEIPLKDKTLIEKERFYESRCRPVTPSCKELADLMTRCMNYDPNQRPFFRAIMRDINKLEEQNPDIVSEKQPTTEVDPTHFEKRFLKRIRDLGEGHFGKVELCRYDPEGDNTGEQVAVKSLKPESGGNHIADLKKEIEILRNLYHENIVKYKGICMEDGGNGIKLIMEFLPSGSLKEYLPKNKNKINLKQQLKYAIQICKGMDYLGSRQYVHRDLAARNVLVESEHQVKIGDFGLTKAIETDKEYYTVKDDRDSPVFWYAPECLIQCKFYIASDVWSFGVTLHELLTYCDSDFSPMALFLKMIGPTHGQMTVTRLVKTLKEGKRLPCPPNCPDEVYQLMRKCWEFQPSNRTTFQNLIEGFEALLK
T3 sequence (Q62137 whole entry): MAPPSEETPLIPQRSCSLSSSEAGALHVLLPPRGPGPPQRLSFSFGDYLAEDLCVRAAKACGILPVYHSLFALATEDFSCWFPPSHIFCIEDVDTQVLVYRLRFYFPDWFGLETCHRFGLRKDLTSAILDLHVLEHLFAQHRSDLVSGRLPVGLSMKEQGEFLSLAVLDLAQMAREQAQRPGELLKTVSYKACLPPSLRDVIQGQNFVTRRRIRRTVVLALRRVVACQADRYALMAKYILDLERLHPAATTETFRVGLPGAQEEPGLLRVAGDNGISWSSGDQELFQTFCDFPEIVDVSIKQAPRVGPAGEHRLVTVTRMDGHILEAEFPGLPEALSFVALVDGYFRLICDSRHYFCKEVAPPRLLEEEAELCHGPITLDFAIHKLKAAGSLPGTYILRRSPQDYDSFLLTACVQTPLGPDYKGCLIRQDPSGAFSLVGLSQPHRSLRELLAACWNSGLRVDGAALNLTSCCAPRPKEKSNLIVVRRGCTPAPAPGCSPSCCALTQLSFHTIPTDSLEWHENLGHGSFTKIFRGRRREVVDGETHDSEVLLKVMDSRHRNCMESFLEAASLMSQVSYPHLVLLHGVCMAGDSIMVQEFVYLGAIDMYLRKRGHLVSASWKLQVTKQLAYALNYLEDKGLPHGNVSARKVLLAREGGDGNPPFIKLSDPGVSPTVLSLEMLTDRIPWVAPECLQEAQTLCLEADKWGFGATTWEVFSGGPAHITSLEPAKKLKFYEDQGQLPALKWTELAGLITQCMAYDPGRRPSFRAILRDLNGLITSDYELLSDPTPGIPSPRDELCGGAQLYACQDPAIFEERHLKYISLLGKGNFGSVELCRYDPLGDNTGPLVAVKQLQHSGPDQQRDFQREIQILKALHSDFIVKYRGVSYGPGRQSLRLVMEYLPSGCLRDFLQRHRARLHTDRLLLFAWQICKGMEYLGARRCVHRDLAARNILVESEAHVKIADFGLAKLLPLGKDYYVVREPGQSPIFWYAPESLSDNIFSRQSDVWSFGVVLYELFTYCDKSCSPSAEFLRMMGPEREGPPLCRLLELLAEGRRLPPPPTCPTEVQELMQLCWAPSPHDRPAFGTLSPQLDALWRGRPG
T3 sequence (Q9JHX3 20-529 partner): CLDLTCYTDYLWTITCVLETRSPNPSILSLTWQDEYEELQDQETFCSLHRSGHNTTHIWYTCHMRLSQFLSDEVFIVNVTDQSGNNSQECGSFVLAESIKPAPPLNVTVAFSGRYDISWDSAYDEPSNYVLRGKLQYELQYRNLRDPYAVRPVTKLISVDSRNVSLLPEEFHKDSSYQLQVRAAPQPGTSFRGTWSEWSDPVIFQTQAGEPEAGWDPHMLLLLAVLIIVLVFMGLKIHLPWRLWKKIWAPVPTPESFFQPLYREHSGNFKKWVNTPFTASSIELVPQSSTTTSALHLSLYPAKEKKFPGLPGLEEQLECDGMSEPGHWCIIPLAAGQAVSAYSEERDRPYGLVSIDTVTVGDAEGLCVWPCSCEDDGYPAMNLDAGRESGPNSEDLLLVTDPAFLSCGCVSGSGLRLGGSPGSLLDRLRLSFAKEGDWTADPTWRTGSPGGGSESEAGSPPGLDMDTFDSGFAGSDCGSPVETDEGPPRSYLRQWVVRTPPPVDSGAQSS
T3 sequence (P34902 23-369 partner): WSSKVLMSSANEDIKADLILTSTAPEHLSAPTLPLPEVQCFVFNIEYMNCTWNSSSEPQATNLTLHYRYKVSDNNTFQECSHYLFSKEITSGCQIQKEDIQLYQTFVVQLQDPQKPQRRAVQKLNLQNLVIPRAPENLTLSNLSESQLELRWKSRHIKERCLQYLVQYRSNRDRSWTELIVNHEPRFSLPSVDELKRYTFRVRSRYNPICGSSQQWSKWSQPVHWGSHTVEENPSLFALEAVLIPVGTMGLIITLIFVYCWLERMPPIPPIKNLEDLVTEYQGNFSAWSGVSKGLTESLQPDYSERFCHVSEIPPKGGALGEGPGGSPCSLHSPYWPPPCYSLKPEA
T1 sequence (O60674 whole entry): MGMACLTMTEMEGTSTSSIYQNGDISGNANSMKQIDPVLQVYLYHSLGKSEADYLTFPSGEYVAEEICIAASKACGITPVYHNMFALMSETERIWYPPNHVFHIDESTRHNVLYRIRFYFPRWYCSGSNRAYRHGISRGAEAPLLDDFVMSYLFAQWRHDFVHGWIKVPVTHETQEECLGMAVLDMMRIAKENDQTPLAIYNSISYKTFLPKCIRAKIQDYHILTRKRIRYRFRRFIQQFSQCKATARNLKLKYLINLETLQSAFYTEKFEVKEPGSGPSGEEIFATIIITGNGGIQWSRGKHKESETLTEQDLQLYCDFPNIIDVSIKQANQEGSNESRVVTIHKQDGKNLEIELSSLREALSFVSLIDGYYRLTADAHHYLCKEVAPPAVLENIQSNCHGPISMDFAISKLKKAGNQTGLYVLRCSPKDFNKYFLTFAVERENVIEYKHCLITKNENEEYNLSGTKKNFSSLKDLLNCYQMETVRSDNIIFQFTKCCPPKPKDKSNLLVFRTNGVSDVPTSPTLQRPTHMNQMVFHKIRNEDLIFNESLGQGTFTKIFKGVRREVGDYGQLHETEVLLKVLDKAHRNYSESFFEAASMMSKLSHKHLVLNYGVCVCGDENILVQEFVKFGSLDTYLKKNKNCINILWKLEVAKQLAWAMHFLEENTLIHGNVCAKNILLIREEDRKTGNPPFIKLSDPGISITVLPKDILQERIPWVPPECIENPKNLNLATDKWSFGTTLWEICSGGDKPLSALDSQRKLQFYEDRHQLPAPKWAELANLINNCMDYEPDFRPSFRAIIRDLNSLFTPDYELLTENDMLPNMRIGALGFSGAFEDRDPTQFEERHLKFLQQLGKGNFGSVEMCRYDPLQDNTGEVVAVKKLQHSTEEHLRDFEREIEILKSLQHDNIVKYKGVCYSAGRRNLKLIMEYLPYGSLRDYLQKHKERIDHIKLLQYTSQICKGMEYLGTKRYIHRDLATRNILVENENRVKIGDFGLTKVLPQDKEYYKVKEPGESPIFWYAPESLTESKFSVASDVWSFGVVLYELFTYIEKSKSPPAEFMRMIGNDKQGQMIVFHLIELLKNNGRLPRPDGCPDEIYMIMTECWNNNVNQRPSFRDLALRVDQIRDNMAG
T1 sequence (P40238 26-635 partner): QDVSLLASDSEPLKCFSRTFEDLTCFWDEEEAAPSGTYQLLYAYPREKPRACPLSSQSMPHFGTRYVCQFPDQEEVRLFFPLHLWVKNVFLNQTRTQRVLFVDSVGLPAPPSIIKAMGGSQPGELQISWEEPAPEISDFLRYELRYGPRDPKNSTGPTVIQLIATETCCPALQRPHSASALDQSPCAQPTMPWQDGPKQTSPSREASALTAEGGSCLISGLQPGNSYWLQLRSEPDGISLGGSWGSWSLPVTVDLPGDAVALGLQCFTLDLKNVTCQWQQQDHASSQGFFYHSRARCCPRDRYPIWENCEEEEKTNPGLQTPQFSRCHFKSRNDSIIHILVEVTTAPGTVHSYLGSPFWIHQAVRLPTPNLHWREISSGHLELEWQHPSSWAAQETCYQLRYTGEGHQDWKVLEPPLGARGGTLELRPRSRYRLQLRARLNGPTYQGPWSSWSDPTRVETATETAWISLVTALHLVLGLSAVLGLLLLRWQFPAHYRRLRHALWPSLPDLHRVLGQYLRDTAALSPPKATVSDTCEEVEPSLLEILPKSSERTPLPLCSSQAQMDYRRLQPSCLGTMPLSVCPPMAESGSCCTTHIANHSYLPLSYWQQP

In the case of `CC(C)(O)CNC(=O)Cc1nc2cnc3[nH]ccc3c2n1[C@H]1CC[C@H](CC#N)CC1` [Compound of Formula I, 2-(1-((1r,4r)-4-(Cyanomethyl)cyclohexyl)-1,6-dihydroimidazo[4,5-d]pyrrolo[2,3-b]pyridin-2-yl)-N-(2-hydroxy-2-methylpropyl)acetamide], the IC50 (JAK2/JAK2) is reported as 490 nM, the IC50 (JAK1/JAK3) is reported as 579 nM and the IC50 (JAK1/3) is reported as 415 nM. It also gave a concentration at 4 h ([1]; colon, 0.25 mg/kg, SS-1, mice, 4 hours post oral dose 0.25 mg/kg, mean±SEM, read-out: Colon concentration) of 446 ± 51.5 ng/g, a concentration at 4 h ([1]; colon, 0.25 mg/kg, SS-2, mice, 4 hours post oral dose 0.25 mg/kg, mean±SEM, read-out: Colon concentration) of 262 ± 30.5 ng/g and a concentration at 4 h ([1]; colon, 2.5 mg/kg, SS-1, mice, 4 hours post oral dose 2.5 mg/kg, mean±SEM, read-out: Colon concentration) of 2840 ± 716 ng/g. For the same compound, the concentration at 4 h ([1]; colon, 2.5 mg/kg, SS-2, mice, 4 hours post oral dose 2.5 mg/kg, mean±SEM, read-out: Colon concentration) was 1320 ± 270 ng/g, the concentration at 4 h ([1]; colon, 5 mg/kg, SS-1, mice, 4 hours post oral dose 5 mg/kg, mean±SEM, read-out: Colon concentration) was 4630 ± 705 ng/g and the concentration at 4 h ([1]; colon, 5 mg/kg, SS-2, mice, 4 hours post oral dose 5 mg/kg, mean±SEM, read-out: Colon concentration) was 4670 ± 953 ng/g. The concentration at 4 h ([1]; colon, 25 mg/kg, SS-1, mice, 4 hours post oral dose 25 mg/kg, mean±SEM, read-out: Colon concentration) was 27500 ± 6130 ng/g, the concentration at 4 h ([1]; colon, 25 mg/kg, SS-2, mice, 4 hours post oral dose 25 mg/kg, mean±SEM, read-out: Colon concentration) was 22900 ± 4150 ng/g and the concentration at 4 h ([1]; serum, 5 mg/kg, SS-2, mice, 4 hours post oral dose 5 mg/kg, mean±SEM, read-out: Serum concentration) was 10.3 ± 6.9 nM. The concentration at 4 h ([1]; serum, 25 mg/kg, SS-1, mice, 4 hours post oral dose 25 mg/kg, mean±SEM, read-out: Serum concentration) was 4.9 ± 2.1 nM, the concentration at 4 h ([1]; serum, 25 mg/kg, SS-2, mice, 4 hours post oral dose 25 mg/kg, mean±SEM, read-out: Serum concentration) was 6.3 ± 2.9 nM and the concentration at 4 h ([1]; serum, SS-1 and SS-2, all oral doses, 4 hours post dose, read-out: systemic (serum) exposure) was ≤ 10.3 nM. The Serum concentration ([1]; SS-1, mice, 4 hours post oral dose 0.25 mg/kg, mean±SEM) was “BLOQ”, the Serum concentration ([1]; SS-1, mice, 4 hours post oral dose 2.5 mg/kg, mean±SEM) was “BLOQ” and the Serum concentration ([1]; SS-1, mice, 4 hours post oral dose 5 mg/kg, mean±SEM) was “BLOQ”. For the same compound, the Colon concentration ([1]; SS-1, mice, 4 hours post oral dose 25 mg/kg, mean±SEM, 25 mg/kg) was 27488.1 ± 6128.6 ng/g, the Serum concentration ([1]; SS-2, mice, 4 hours post oral dose 0.25 mg/kg, mean±SEM) was “BLOQ” and the Serum concentration ([1]; SS-2, mice, 4 hours post oral dose 2.5 mg/kg, mean±SEM) was “BLOQ”. For the same compound, the Colon concentration ([1]; SS-2, mice, 4 hours post oral dose 25 mg/kg, mean±SEM, 25 mg/kg) was 22929.6 ± 4146.6 ng/g, the Brain concentration [2, 3] was “BLOQ^(a)” and the Fat concentration [2, 3] was “BLOQ^(a)”. The Kidney concentration ([2]; 1 h, SD NA) was 42.2 ng/g, the Plasma concentration ([2]; 1 h, SD NA) was 5.8 ng/mL and the Brain concentration [2, 4] was “BLOQ^(a)”. For the same compound, the Fat concentration [2, 4] was “BLOQ^(a)”, the Muscle concentration [2, 4] was “BLOQ^(a)” and the Brain concentration [2, 5] was “BLOQ^(a)”. The Muscle concentration [2, 5] was “BLOQ^(a)”, the “Ileum Content concentration” value ([2]; 3 h, average, N = 3) was 1,402,241 ng/mL and the Brain concentration [2, 6] was “BLOQ^(a)”. The Fat concentration [2, 6] was “BLOQ^(a)”, the Muscle concentration [2, 6] was “BLOQ^(a)” and the Brain concentration ([2]; 7 h, BLOQ 0.5 ng/mL of tissue homogenate) was “BLOQ^(a)”. The Plasma concentration ([2]; 24 h, BLOQ 0.5 ng/mL) was “BLOQ^(a)”, the Brain concentration [2, 7] was “BLOQ^(a)” and the Fat concentration [2, 7] was “BLOQ^(a)”. The Kidney concentration [2, 7] was “BLOQ^(a)”, the Muscle concentration [2, 7] was “BLOQ^(a)” and the concentration at 0.5 h ([2]; brain, average ±SD, read-out: Brain concentration) was 3.5 ± 3.1 ng/g. It also gave a concentration at 0.5 h ([2]; colon lumen content, average, N = 3, read-out: Colon Content concentration) of 167 ng/mL, a concentration at 1 h ([2]; colon lumen content, 1 h, average, N = 3, read-out: Colon Content concentration) of 135 ng/mL and a concentration at 2 h ([2]; colon lumen content, 2 h, average, N = 3, read-out: Colon Content concentration) of 19100 ng/mL. It also gave a concentration at 3 h ([2]; colon lumen content, 3 h, average, N = 3, read-out: Colon Content concentration) of 304 µg/mL, a concentration at 5 h ([2]; colon lumen content, 5 h, average, N = 3, read-out: Colon Content concentration) of 830 µg/mL and a concentration at 7 h ([2]; colon lumen content, 7 h, average, N = 3, read-out: Colon Content concentration) of 834 µg/mL. It also gave a concentration at 24 h ([2]; colon lumen content, 24 h, average, N = 3, read-out: Colon Content concentration) of 7590 ng/mL, a concentration at 0.5 h ([2]; colon tissue, average, N = 3, read-out: Colon Tissue concentration) of 946 ng/g and a concentration at 1 h ([2]; colon tissue, 1 h, average, N = 3, read-out: Colon Tissue concentration) of 383 ng/g. For the same compound, the concentration at 2 h ([2]; colon tissue, 2 h, average, N = 3, read-out: Colon Tissue concentration) was 2190 ng/g, the concentration at 3 h ([2]; colon tissue, 3 h, average, N = 3, read-out: Colon Tissue concentration) was 12400 ng/g and the concentration at 5 h ([2]; colon tissue, 5 h, average, N = 3, read-out: Colon Tissue concentration) was 33500 ng/g. It also gave a concentration at 7 h ([2]; colon tissue, 7 h, average, N = 3, read-out: Colon Tissue concentration) of 36700 ng/g and a concentration at 24 h ([2]; colon tissue, 24 h, average, N = 3, read-out: Colon Tissue concentration) of 353 ng/g.
